Laboratory results from publication PMC10301432, “Antiplasmodial, Trypanocidal, and Genotoxicity In Vitro Assessment of New Hybrid α,α-Difluorophenylacetamide-statin Derivatives” (Pharmaceuticals, 2023).
Like-named read-outs stand apart in the source and are kept apart here.

Columns and labels:
[1] = system: Salmonella enterica serovar Typhimurium TA102
[2] = Salmonella/microsome assay, TA97; conditions: Salmonella enterica serovar Typhimurium, S. typhimurium TA97 without S9 mix, pH 7.4
Description: (§1) Salmonella enterica serovar Typhimurium (S. typhimurium) strains TA97, TA98, TA100, TA104 and TA102 from the authors’ stock were used as described in the mutagenicity assay.
(§2) To determine the cytotoxic effects, after 30 min pre-incubation, the assay mixtures were diluted in 0.9% NaCl (w/v) to obtain a suspension containing 2 × 10^2 cells/mL. […] The plates were then incubated at 37 °C for 24 h and the colonies counted. All the experiments were conducted in triplicate and were repeated at least twice. Statistical differences between the groups were analyzed by a two-way ANOVA (p < 0.05) and Tukey’s post hoc test.

[3] = system: Salmonella enterica serovar Typhimurium TA97; assay: Salmonella/microsome assay, TA97
Description: as §1, §2

[4] = system: intracellular forms of T. cruzi (Tulahuen strain transfected with β-galactosidase); assay: Activity against intracellular T. cruzi in L929 cells; format: cell-based, Trypanosoma cruzi; conditions: 96 h; for EC50: intracellular forms, Tulahuen strain
[5] = system: human hepatoma cell line (HepG2); assay: in vitro; format: cell-based; conditions: preliminary cytotoxicity, HepG2
How it was run: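 Cells grown in MEM with 10% FBS at 37 °C, 5% CO2, and seeded at 1 × 10^4/well. After treatment, viability read by WST-1 over 3 h incubation, absorbance at 440 nm.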

T. cruzi = assay: Trypanocidal in vitro phenotypic screening, overall outcome; format: cell-based, Trypanosoma cruzi; conditions: summarized outcome
[6] = Salmonella/microsome assay, TA98; conditions: Salmonella enterica serovar Typhimurium, S. typhimurium TA98 without S9 mix, pH 7.4
Description: as §1, §2

[7] = system: Salmonella enterica serovar Typhimurium TA98; assay: Salmonella/microsome assay, TA98
Description: as §1, §2

[8] = Salmonella/microsome assay, TA104; conditions: Salmonella enterica serovar Typhimurium
Description: as §1, §2

[9] = system: Salmonella enterica serovar Typhimurium TA104; assay: Salmonella/microsome assay, TA104
Description: as §1, §2

[10] = Salmonella/microsome assay, TA100; conditions: Salmonella enterica serovar Typhimurium, S. typhimurium TA100 without S9 mix, pH 7.4

## CC(=O)Nc1ccc(C)cc1C(F)(F)C(=O)NCC[C@@H]1C[C@H](CC(=O)OC(C)(C)C)OC(C)(C)O1 [Compound 13b, tert-Butyl 2-((4R,6R)-6-(2-(2-(2-acetamido-5-methylphenyl)-2,2-difluoroacetamido)ethyl)-2,2-dimethyl-1,3-dioxan-4-yl)acetate]
[1]; +S9, 3 µM
  revertant His+ colonies TA102: 365 ± 37
[1]; +S9, 15 µM
  revertant His+ colonies TA102: 386 ± 42
[1]; +S9, 30 µM
  revertant His+ colonies TA102: 403 ± 19
[1]; +S9, 150 µM
  revertant His+ colonies TA102: 396 ± 31
[1]; +S9, 300 µM
  revertant His+ colonies TA102: 372 ± 40
[1]; +S9, 1500 µM
  revertant His+ colonies TA102: 399 ± 18
[1]; −S9, 3 µM
  revertant His+ colonies TA102: 388 ± 20
[1]; −S9, 15 µM
  revertant His+ colonies TA102: 393 ± 18
[1]; −S9, 30 µM
  revertant His+ colonies TA102: 423 ± 11
[1]; −S9, 150 µM
  revertant His+ colonies TA102: 503 ± 23
[1]; −S9, 300 µM
  revertant His+ colonies TA102: 543 ± 39
[1]; −S9, 1500 µM
  revertant His+ colonies TA102: 560 ± 41
[2]
  CC50 at 30 min: > 1.5 mM
[3]; +S9, 3 µM
  revertant His+ colonies TA97: 189 ± 43
[3]; +S9, 15 µM
  revertant His+ colonies TA97: 183 ± 43
[3]; +S9, 30 µM
  revertant His+ colonies TA97: 216 ± 47
[3]; +S9, 150 µM
  revertant His+ colonies TA97: 231 ± 5
[3]; +S9, 300 µM
  revertant His+ colonies TA97: 244 ± 23
[3]; +S9, 1500 µM
  revertant His+ colonies TA97: 288 ± 33
[3]; −S9, 3 µM
  revertant His+ colonies TA97: 69 ± 12
[3]; −S9, 15 µM
  revertant His+ colonies TA97: 76 ± 7
[3]; −S9, 30 µM
  revertant His+ colonies TA97: 75 ± 12
[3]; −S9, 150 µM
  revertant His+ colonies TA97: 74 ± 12
[3]; −S9, 300 µM
  revertant His+ colonies TA97: 84 ± 7
[3]; −S9, 1500 µM
  revertant His+ colonies TA97: 89 ± 27
[4]; Trypanosoma cruzi, TULAHUEN, L929, 96 h
  EC50: ≥ 0.05 mM
[4]; fixed concentration 10 µM
  10µM (% of Parasite Lysis): 25.41 ± 10.90%
[4]
  EC50: > 0.05 mM
[5]
  lack of toxic events up to: up to 400 μM
T. cruzi
  Trypanocidal Activity: No
[6]
  CC50 at 30 min: > 1.5 mM
[7]; +S9, 3 µM
  revertant His+ colonies TA98: 27 ± 5
[7]; +S9, 15 µM
  revertant His+ colonies TA98: 27 ± 1
[7]; +S9, 30 µM
  revertant His+ colonies TA98: 27 ± 5
[7]; +S9, 150 µM
  revertant His+ colonies TA98: 27 ± 5
[7]; +S9, 300 µM
  revertant His+ colonies TA98: 39 ± 1
[7]; +S9, 1500 µM
  revertant His+ colonies TA98: 45 ± 4
[7]; −S9, 3 µM
  revertant His+ colonies TA98: 18 ± 2
[7]; −S9, 15 µM
  revertant His+ colonies TA98: 19 ± 3
[7]; −S9, 30 µM
  revertant His+ colonies TA98: 21 ± 5
[7]; −S9, 150 µM
  revertant His+ colonies TA98: 22 ± 2
[7]; −S9, 300 µM
  revertant His+ colonies TA98: 22 ± 2
[7]; −S9, 1500 µM
  revertant His+ colonies TA98: 26 ± 4
[8]; S. typhimurium TA104 with S9 mix, LC50 (bacterial cytotoxicity) TA104, presence of S9 mix
  CC50 at 30 min: > 1.5 mM
[8]; S. typhimurium TA104 without S9 mix, pH 7.4, LC50 (bacterial cytotoxicity) TA104, absence of S9 mix
  CC50 at 30 min: > 1.5 mM
[9]; +S9, 3 µM
  revertant His+ colonies TA104: 355 ± 12
[9]; +S9, 15 µM
  revertant His+ colonies TA104: 356 ± 14
[9]; +S9, 30 µM
  revertant His+ colonies TA104: 421 ± 67
[9]; +S9, 150 µM
  revertant His+ colonies TA104: 447 ± 45
[9]; +S9, 300 µM
  revertant His+ colonies TA104: 449 ± 18
[9]; +S9, 1500 µM
  revertant His+ colonies TA104: 510 ± 13
[9]; −S9, 3 µM
  revertant His+ colonies TA104: 210 ± 11
[9]; −S9, 15 µM
  revertant His+ colonies TA104: 267 ± 15
[9]; −S9, 150 µM
  revertant His+ colonies TA104: 326 ± 13
[9]; −S9, 300 µM
  revertant His+ colonies TA104: 350 ± 22
[9]; −S9, 1500 µM
  revertant His+ colonies TA104: 400 ± 11
[10]
  CC50 at 30 min: > 1.5 mM
